Measured values published in US4540697A, “Aminopropanol derivatives of 2-hydroxy-β-phenyl-propiophenones, pharmaceutical compositions and use” (priority 1984, dated 1985).
In brackets after ≈: the same amount, converted by molar mass. Structures can show the parent of a compound that is named as a salt.

What was measured:
[1] = test system: aconitine arrhythmia in rats; assay: Antiarrhythmic action on aconitine arrhythmia in rats; format: in vivo, rat (strain: Sprague Dawley); conditions: Rattus norvegicus, po, 1 h, peroral administration, aconitine infused 60 minutes after substance, read-out: ED 50%: dose which causes a 50% extension in the period of aconitine infusion
Experimental: Moreover, the novel compounds were administered orally or intravenously to male rats (strain: Sprague Dawley, weight: 200-230 g) to determine the antiarrhythmic activity. 45 minutes later, the animals were anesthetized by intraperitoneal administration of 100 mg/kg of thiobutabarbital sodium. Aconitine served as the arrhythmogenic substance, and was infused intravenously at a dosage rate of 0.005 mg/kg/minute 60 minutes after administration of the substance. In untreated animals (n=52), arrhythmias appeared in the ECG after 2.74±0.07 minutes. These arrhythmias can be delayed by antiarrhythmic drugs, as a function of the dose.
The dose which extends the infusion period by 50% (ED 50%) was determined from the linear relationship between the logarithm of the dose (mg/kg) of the trial substance and the relative extension of the period of aconitine infusion (Δ%).
(§1) The known antiarrhythmic drug propafenone [2-(2-hydroxy-3-propylamino-propoxy)-3-phenyl-propiophenone hydrochloride]was used as the comparative substance.

[2] = test system: isolated left atrium of male guineapigs; assay: Antiarrhythmic action on the isolated guineapig atrium (drop in maximum rhythmicity); design: species or system guineapig (strain: Pirbright white); conditions: Cavia porcellus, Tyrode's solution pH 7.4, 32° C., read-out: Maximum rhythmicity (ED 50%): concentration which causes a 50% drop in the maximum rhythmicity
Experimental: The antiarrhythmic activity of the compounds according to the invention was determined on the isolated left atrium of male guineapigs (strain: Pirbright white, weight: 350 to 450 g).
Atria suspended in an organ bath (volume: 125 ml) with carbogen-saturated Tyrode's solution (pH 7.4, 32° C.) were pre-loaded with 1.0 g and subjected to square-wave pulses having a base rhythm of 1 Hz and twice the excitation threshold (rheobase: 0.2-1.4 V, chronaxia: 0.3-0.5 msec).
The frequency (Hz) up to which contraction follows each stimulus (maximum rhythmicity, MR) was determined, by automatically and continuously increasing the frequency, as a criterion of the antiarrhythmic activity. The concentration which causes a drop in the maximum rhythmicity of 50% (EC 50%) was calculated from the linear relationship between the logarithm of the concentration (mg/l) and the relative drop in the maximum rhythmicity (%).
as §1

Row | Compound | ED50 [1] [mg/kg] | EC50 [2] [µg/mL]
1 | CC(CCO)NCC(O)COc1ccccc1C(=O)CCc1ccccc1 (stereo not drawn) [Example 1, 2-[2'-Hydroxy-3'-(4-hydroxybut-2-ylamino)-propoxy]-β-phenyl-propiophenone hydrochloride] | 15 | 1.9
2 | COCC(C)NCC(O)COc1ccccc1C(=O)CCc1ccccc1 (stereo not drawn) [Example 2, 2-[2'-Hydroxy-3'-(3-methoxyprop-2-ylamino)-propoxy]-β-phenyl-propiophenone hydrochloride] | 46.4 | 0.874
3 | O=C(CCc1ccccc1)c1ccccc1OCC(O)CNC1CC1 (stereo not drawn) [Example 3, 2-(2'-Hydroxy-3'-cyclopropylamino-propoxy)-β-phenylpropiophenone hydrochloride] | 38.2 | 1.51
4 | COCCNCC(O)COc1ccccc1C(=O)CCc1ccccc1 (stereo not drawn) [Example 9, 2-[2'-Hydroxy-3'-(2-methoxyethylamino)-propoxy]-β-phenyl-propiophenone hydrochloride] | 27 | 0.757
5 | CSCC(C)NCC(O)COc1ccccc1C(=O)CCc1ccccc1 (stereo not drawn) [Example 10, 2-[2'-Hydroxy-3'-(3-thiomethoxyprop-2-ylamino)-propoxy]-β-phenyl-propiophenone hydrochloride] | 46.4 | 1.13
6 | O=C(CCc1ccccc1)c1ccccc1OCC(O)CN1CCC(O)CC1 (stereo not drawn) [Example 23, 2-[2'-Hydroxy-3'-(4-hydroxypiperidino)-propoxy]-β-phenyl-propiophenone hydrochloride] | 31.6 | 1.64
7 | O=C(CCc1ccccc1)c1ccccc1OCC(O)CN1CCC(O)(c2ccccc2)CC1 (stereo not drawn) [Example 24, 2-[2'-Hydroxy-3'-(4-hydroxy-4-phenyl-piperidino)-propoxy]-β-phenyl-propiophenone hydrochloride] | 25.4 | 2.65
8 | CN1CCN(CC(O)COc2ccccc2C(=O)CCc2ccccc2)CC1 (stereo not drawn) [Example 25, 2-[2'-Hydroxy-3'-(4-methyl-piperazin-1-yl)-propoxy]-β-phenyl-propiophenone bis-hydrochloride] | 11.2 | 1.01
9 | CCCNCC(O)COc1ccccc1C(=O)CCc1ccc(F)cc1 (stereo not drawn) [Example 33, 2-(2'-Hydroxy-3'-n-propylamino-propoxy)-β-(4-fluorophenyl)-propiophenone hydrochloride] | 24.5 | 2.05
10 | CCCNCC(O)COc1ccccc1C(=O)CCc1ccc(C)cc1 (stereo not drawn) [Example 34, 2-(2'-Hydroxy-3'-n-propylamino-propoxy)-β-(4-methylphenyl)-propiophenone hydrochloride] | 21.5 | 1.72
11 | CCCNCC(O)COc1ccccc1C(=O)CCc1ccc(N(C)C)cc1 (stereo not drawn) [Example 35, 2-(2'-Hydroxy-3'-n-propylamino-propoxy)-β-(4-dimethylaminophenyl)-propiophenone hydrochloride] | 1.99 | 1.65
12 | CCCNCC(O)COc1ccccc1C(=O)CCc1cc(OC)c(OC)c(OC)c1 (stereo not drawn) [Example 49, 2-(2'-Hydroxy-3'-n-propylaminopropoxy)-β-(3,4,5-trimethoxyphenyl)-propiophenone] | 31.6 | 1.82 (≈ 4.22 µM)
13 | CN(C)c1ccc(CCC(=O)c2ccccc2OCC(O)CN2CCCCC2)cc1 (stereo not drawn) [Example 55, 2-(2'-Hydroxy-3'-piperidino-propoxy)-β-(4-dimethylaminophenyl)-propiophenone] | 5.7 | 0.854 (≈ 2.08 µM)
14 | CN(C)c1ccc(CCC(=O)c2ccccc2OCC(O)CNC2CC2)cc1 (stereo not drawn) [Example 57, 2-(2'-Hydroxy-3'-cyclopropylamino-propoxy)-β-(4-dimethylaminophenyl)-propiophenone hydrochloride] | 1.78 | 2.04
15 | CCCCNCC(O)COc1ccccc1C(=O)CCc1ccc(N(C)C)cc1 (stereo not drawn) [Example 58, 2-(2'-Hydroxy-3'-n-butylamino-propoxy)-β-(4-dimethylaminophenyl)-propiophenone hydrochloride] | 2.33 | 1.92
16 | COCC(C)NCC(O)COc1ccccc1C(=O)CCc1ccc(N(C)C)cc1 (stereo not drawn) [Example 60, 2-[2'-Hydroxy-3'-(3-methoxy-prop-2-ylamino)-propoxy]-β-(4-dimethylaminophenyl)-propiophenone hydrochloride] | 3.25 | 1.82
17 | CN1CCN(CC(O)COc2ccccc2C(=O)CCc2ccc(N(C)C)cc2)CC1 (stereo not drawn) [Example 67, 2-[2'-Hydroxy-3'-(4-methyl-piperazin-1-yl)-propoxy]-β-(4-dimethylaminophenyl)-propiophenone hydrochloride] | 2.15 | 0.658
